Source: patent US8716233B2, “NOTCH mutations leading to increased receptor signaling” (The Brigham and Women's Hospital, Inc., priority 2004, dated 2014)

Legend:
human T-ALL cell lines = assay: Gamma-secretase inhibitor treatment of T-ALL cell lines, cell cycle analysis by flow cytometry; type: cell-based; details: compound E 1 μM, 4-8 days; thirty human T-ALL cell lines lacking t(7;9); compared with murine T6E reference line
Experimental: FIG. 2A-2C. Identification of T-ALL cell lines that require NOTCH signals for growth. (2A) Effect of the γ-secretase inhibitor compound E (GSI, 1 μM) or vehicle alone (mock) on the cell cycle distribution of sensitive cell lines. Cells were treated for 4-8 days, fixed in cold 70% ethanol, stained with propidium iodide, and analyzed by flow cytometry. Live cells were gated by forward/side scatter criteria. (2B) Rescue of GSI-induced cell cycle arrest by MSCV-GFP-ICN1 retrovirus. (2C) Induction of cell cycle arrest by dominant negative MSCV-GFP-Mastermind-like-1 retrovirus. In (2B) and (2C), control cultures were transduced with control empty MSCV-GFP retrovirus or the indicated test virus. Two days post-transduction, cultures were split in two and treated with either compound E (GSI) or DMSO vehicle (mock) for 7-10 days. Cultures were then harvested and stained with the DNA dye DRAQ5, which permits flow cytometric measurement of DNA content in unsorted GFP− and GFP+ subpopulations. A minimum of 15,000 events was collected to create each DNA content histogram. […]
DNA content was ascertained by flow cytometry and cell cycle factors determined using multicycle software (Phoenix Flow Systems, San Diego).

NOTCH-1 = assay: NOTCH-sensitive luciferase reporter gene assay in transiently transfected U2OS cells; type: cell-based, human
Experimental: FIG. 4A-4B. HD and PEST domain mutations activate NOTCH-1 signaling synergistically. (4A) Reporter gene assays. U2OS cells were transiently co-transfected in 24-well format with the indicated pcDNA3 plasmids, a NOTCH-responsive luciferase reporter gene, and an internal Renilla luciferase internal control plasmid, as described previously (Aster, et al., Mol. Cell. Biol. 20:7505-15). Twenty-five ng of pcDNA3 plasmid was used per well, except for experiments with pcDNA3-ICN1, in which 5 ng of plasmid per well were used. Normalized luciferase activities in whole cell lysates were determined in triplicate and expressed relative to the activity in lysates prepared from cells transfected with the empty vector control. (4B) Model for synergistic NOTCH-1 activation by dual mutations involving both the HD and PEST domains.
NOTCH-1 expression plasmids (pcDNA3) were transiently transfected with U2OS cells with (i) an artificial luciferase reporter gene under the control of a promoter containing CSL binding sites and (ii) an internal Renilla luciferase control gene, as described previously (Aster, et al., Mol. Cell. Biol. 20:7505-7515 (2000)), using Lipofectamine Plus (Invitrogen). Total DNA was kept constant by adding empty vector as needed. All transfections were carried out in triplicate, and each experiment was repeated at least three times.

## C[C@H](NC(=O)Cc1cc(F)cc(F)c1)C(=O)N[C@H]1N=C(c2ccccc2)c2ccccc2N(C)C1=O [γ-secretase inhibitor, compound E]
Human T-ALL cell lines
  cell cycle distribution (G0/G1 cell cycle arrest) of T-ALL cell lines: five of thirty human T-ALL cell lines tested showed a G0/G1 cell cycle arrest
NOTCH-1; HD and/or PEST domain mutated NOTCH-1 plasmids
  stimulatory effects of mutated transmembrane NOTCH-1 polypeptides on luciferase reporter activity: completely abrogated
NOTCH-1; pcDNA3-ICN1 (constitutively nuclear)
  stimulation of luciferase reporter activity produced by ICN1: unaffected
